According to publication PMC7024391, “Trypanocidal Activity of Flavanone Derivatives” (Molecules, 2020):

Tests used:
[1] = tested on: Trypanosoma cruzi (amastigotes and trypomastigotes), Tulahuen strain; test: Anti-Trypanosoma cruzi activity assay (amastigotes and trypomastigotes) in infected L929 cells, beta-galactosidase reporter; assay type: cell-based; settings: 96 h incubation; for IC50: Trypanosoma cruzi, ± 0.2, read-out: Trypanocide IC50(μM) ± 0.2
Description: Flavanone derivatives were evaluated for anti-T. cruzi activity against the intracellular forms of the parasite. Although the use of epimastigotes present in the midgut vector may be utilized for initial screening, we have instead opted for the simultaneous use of trypomastigote and intracellular amastigotes forms that are present during both acute and chronic phases of the disease. This approach is in accordance with the Drugs for Neglected Diseases Initiative guidelines (DNDi). Moreover, it also has the advantage of evaluating bioactive compounds in infected cells while at the same time monitoring their effects on both the relevant forms of the parasite in the same system. Benznidazole was used as a positive control against T. cruzi and cytotoxicity was determined in mammalian L929 cells (Table 1). The bioavailability profile of the flavanones was evaluated by applying the Lipinski rule and data related to the risk of toxicity (mutagenicity, tumorigenicity, irritability, and effects on the reproductive system) carried out through online programs “Molinspiration” and “OSIRIS property explorer” (Table 1). […] Nevertheless, this preliminary result motivated us to investigate other analogs bearing substituents in order to improve potency and selectivity. […] Moreover, the selectivity of 2d was almost 4 times greater than 2a. The importance of methoxy substituents for trypanocidal activity has been noted in other studies. […] These compounds resembled more closely the chemical structure of the trypanocidal natural product (brevifolin carboxylate) that these structures were based on. Some enhancement in the trypanocidal activity of hybrid coumarin-chalcone compounds was also noted when the methoxy groups were introduced into either the 2 or 5 positions of the benzene ring. The inclusion of a pyridine moiety in compound 2e was supported by previous reports describing the anti-T. cruzi activity of 2-pyridyl derivatives and their capacity to inhibit cruzain catalytic activity. […] No improvements in anti-T. cruzi activity were also observed for flavanones substituted at the benzoyl moiety (2g–2o and 2v–2x). […] The physicochemical drug descriptors of the molecular properties for the synthesized compounds were calculated by Molinspiration software (Table 1). The majority of the tested compounds satisfy the Lipinski rule with no violations and therefore displaying potentially good bioavailability. There were no linear correlations observed between molecular hydrophobicity and bioactivity.
The in vitro anti-T. cruzi activity was evaluated on L929 cells (mouse fibroblasts) infected with Tulahuen strain of the parasite expressing the Escherichia coli β-galactosidase as reporter gene. Briefly, for the bioassay, 4000 L929 cells were added to each well of a 96-well microtiter plate. After an overnight incubation, 40,000 trypomastigotes were added to the cells and incubated for 2 h. Then, the medium containing extracellular parasites were replaced with 200 μL of fresh medium and the plate was incubated for an additional 48 h to establish the infection. For IC50 determination, the cells were exposed to each synthesized compound at serial decreasing dilutions and the plate was incubated for 96 h. After this period, 50 μL of 500 μM chlorophenol red beta-D-galactopyranoside (CPRG) in 0.5% Nonidet P40 was added to each well, and the plate was incubated for 16–20 h, after which the absorbance at 570 nm was measured. Controls with uninfected cells, untreated infected cells, infected cells treated with Benznidazole at 3.8 μM (positive control) or DMSO 1% were used. The results were expressed as the percentage of T. cruzi growth inhibition in compound-tested cells as compared to the infected cells and untreated cells. The IC50 values were calculated by linear interpolation. Quadruplicates were run in the same plate, and the experiments were repeated at least once.

[2] = In vitro cytotoxic test on uninfected L-929 cells (alamarBlue); assay type: cell-based, mouse; settings: mouse, uninfected L-929 cells; mammalian L929 cells, 96 h, alamarBlue; ± 2.0; read-out: Cytotoxicity CC50(μM) ± 2.0
Description: (§1) The active compounds were tested in vitro for determination of cellular toxicity against uninfected L-929 cells using the alamarBlue® dye. The cells were exposed to compounds at increasing concentrations starting at IC50 value for T. cruzi. After 96 h of incubation with the tested compounds, the alamarBlue® was added and the absorbance at 570 and 600 nm measured after 4–6 h. The cell viability was expressed as the percentage of difference in the reduction between treated and untreated cells. IC50 values were calculated by linear interpolation, and the selectivity index (SI) was determined based on the ratio of the IC50 value in the host cell divided by the IC50 value of the parasite. Quadruplicates were run in the same plate, and the experiments were repeated at least once.

L929 cells = test: as above; assay type: cell-based, mouse; settings: CC50 L929 / IC50 T. cruzi
Description: as §1

## O=C(c1ccccc1)[C@@H]1C(=O)c2ccccc2O[C@H]1c1ccccn1 (relative stereo) [Compound 2e, trans-3-benzoyl-2-(pyridin-2-yl)chroman-4-one]
[1]
  IC50: 184 µM
[2]
  CC50 at 96 h: 243 µM
L929 cells
  SI (selectivity index calculated from CC50/IC50): 1.3

## COc1ccc(C(=O)[C@@H]2C(=O)c3ccccc3O[C@H]2c2ccccc2)cc1 (relative stereo) [Compound 2l, trans-3-(4-methoxybenzoyl)-2-phenylchroman-4-one]
[1]
  IC50: 223 µM
[2]
  CC50 at 96 h: 223 µM
L929 cells
  SI (selectivity index calculated from CC50/IC50): 1

## O=C(c1ccccc1)[C@@H]1C(=O)c2ccccc2O[C@H]1c1ccc([N+](=O)[O-])o1 (relative stereo) [Compound 2z, trans-3-benzoyl-2-(5-nitrofuran-2-yl)chroman-4-one]
[1]
  IC50: 2.6 µM
[2]
  CC50 at 96 h: 27.5 µM
L929 cells
  SI (selectivity index calculated from CC50/IC50): 10.6

## O=C(c1ccco1)[C@@H]1C(=O)c2ccccc2O[C@H]1c1ccc(F)cc1 (relative stereo) [Compound 2x, trans-2-(4-fluorophenyl)-3-(furan-2-carbonyl)chroman-4-one]
[1]
  Trypanocide IC50(μM) ± 0.2: Inactive

## c1ccc(-c2n[nH]c3c2C(c2ccccc2)Oc2ccccc2-3)cc1 (stereo not drawn) [Compound 5, 3,4-diphenyl-1,4-dihydrochromeno[4,3-c]pyrazole]
[1]
  IC50: 8.3 µM
[2]
  CC50 at 96 h: 38.6 µM
L929 cells
  SI (selectivity index calculated from CC50/IC50): 4.6

## O=C(c1ccccc1)[C@@H]1C(=O)c2ccccc2O[C@H]1c1ccc(F)cc1 (relative stereo) [Compound 2c, trans-3-benzoyl-2-(4-fluorophenyl)chroman-4-one]
[1]
  IC50: 21.9 µM
[2]
  CC50 at 96 h: 231 µM
L929 cells
  SI (selectivity index calculated from CC50/IC50): 10.5

## O=C(c1ccccc1)[C@@H]1C(=O)c2ccccc2O[C@H]1c1ccc(OCc2ccccc2)cc1 (relative stereo) [Compound 2f, trans-3-benzoyl-2-(4-(benzyloxy)phenyl)chroman-4-one]
[1]
  IC50: 7.6 µM
[2]
  CC50 at 96 h: 92.1 µM
L929 cells
  SI (selectivity index calculated from CC50/IC50): 12.1

## CCC1(C(=O)c2ccccc2)C(=O)c2ccccc2OC1c1ccccc1 (stereo not drawn) [Compound 4, 3-Benzoyl-3-ethyl-2-phenylchroman-4-one]
[1]
  IC50: 13.2 µM
[2]
  CC50 at 96 h: 449 µM
L929 cells
  SI (selectivity index calculated from CC50/IC50): 34.03

## O=C(c1ccccc1)[C@@H]1C(=O)c2ccccc2O[C@H]1c1ccco1 (relative stereo) [Compound 2y, trans-3-benzoyl-2-(furan-2-yl)chroman-4-one]
[1]
  IC50: 114 µM
[2]
  CC50 at 96 h: 503 µM
L929 cells
  SI (selectivity index calculated from CC50/IC50): 4.4

## COc1ccc(C(=O)[C@@H]2C(=O)c3ccccc3O[C@H]2c2ccccc2Cl)cc1 (relative stereo) [Compound 2o, trans-2-(2-chlorophenyl)-3-(4-methoxybenzoyl)chroman-4-one]
[1]
  IC50: 26.5 µM
[2]
  CC50 at 96 h: 408 µM
L929 cells
  SI (selectivity index calculated from CC50/IC50): 15.4

## O=C(c1ccccc1)[C@@H]1C(=O)c2ccccc2O[C@H]1c1ccccc1 (relative stereo) [Compound 2a, trans-3-benzoyl-2-phenylchroman-4-one]
[1]
  IC50: 8.8 µM
[2]
  CC50 at 96 h: 80 µM
L929 cells
  SI (selectivity index calculated from CC50/IC50): 9.1

## COc1ccc2c(c1)C(=O)[C@@H](C(=O)c1ccccc1)[C@H](c1ccccc1)O2 (relative stereo) [Compound 2p, trans-3-benzoyl-6-methoxy-2-phenylchroman-4-one]
[1]
  Trypanocide IC50(μM) ± 0.2: Inactive

## COc1ccc([C@@H]2Oc3ccccc3C(=O)[C@H]2C(=O)c2ccccc2)cc1 (relative stereo) [Compound 2d, trans-3-benzoyl-2-(4-methoxyphenyl)chroman-4-one]
[1]
  IC50: 5.8 µM
[2]
  CC50 at 96 h: 223 µM
L929 cells
  SI (selectivity index calculated from CC50/IC50): 38.5

## Cc1ccc(C(=O)[C@@H]2C(=O)c3ccccc3O[C@H]2c2ccc(F)cc2)cc1 (relative stereo) [Compound 2h, trans-2-(4-fluorophenyl)-3-(4-methylbenzoyl)chroman-4-one]
[1]
  IC50: 22.5 µM
[2]
  CC50 at 96 h: 111 µM
L929 cells
  SI (selectivity index calculated from CC50/IC50): 4.9

## COc1ccc2c(c1)C(=O)[C@@H](C(=O)c1ccccc1)[C@H](c1ccccc1Cl)O2 (relative stereo) [Compound 2s, trans-3-benzoyl-2-(2-chlorophenyl)-6-methoxychroman-4-one]
[1]
  IC50: 18.4 µM
[2]
  CC50 at 96 h: 102 µM
L929 cells
  SI (selectivity index calculated from CC50/IC50): 5.5

## COc1ccc([C@@H]2Oc3ccccc3C(=O)[C@H]2C(=O)c2ccc(C)cc2)cc1 (relative stereo) [Compound 2i, trans-2-(4-methoxyphenyl)-3-(4-methylbenzoyl)chroman-4-one]
[1]
  IC50: 25 µM
[2]
  CC50 at 96 h: 107 µM
L929 cells
  SI (selectivity index calculated from CC50/IC50): 4.3

## O=C(c1ccc(Cl)cc1)[C@@H]1C(=O)c2ccccc2O[C@H]1c1ccccc1 (relative stereo) [Compound 2k, trans-3-(4-chlorobenzoyl)-2-phenylchroman-4-one]
[1]
  IC50: 29.3 µM
[2]
  CC50 at 96 h: 110 µM
L929 cells
  SI (selectivity index calculated from CC50/IC50): 3.8

## COc1ccc(C(=O)[C@@H]2C(=O)c3ccccc3O[C@H]2c2ccc(F)cc2)cc1 (relative stereo) [Compound 2n, trans-2-(4-fluorophenyl)-3-(4-methoxybenzoyl)chroman-4-one]
[1]
  IC50: 213 µM

## O=C(c1ccccc1)[C@@H]1C(=O)c2ccccc2O[C@H]1c1ccccc1Cl (relative stereo) [Compound 2b, trans-3-benzoyl-2-(2-chlorophenyl)chroman-4-one]
[1]
  IC50: 10.7 µM
[2]
  CC50 at 96 h: 442 µM
L929 cells
  SI (selectivity index calculated from CC50/IC50): 40.3

## COc1ccc(C(=O)[C@@H]2C(=O)c3ccccc3O[C@H]2c2ccc(OC)cc2)cc1 (relative stereo) [Compound 2m, trans-3-(4-methoxybenzoyl)-2-(4-methoxyphenyl)chroman-4-one]
[1]
  IC50: 37.4 µM
[2]
  CC50 at 96 h: 103 µM
L929 cells
  SI (selectivity index calculated from CC50/IC50): 2.8

## COc1ccc([C@@H]2Oc3ccc(OC)cc3C(=O)[C@H]2C(=O)c2ccccc2)cc1 (relative stereo) [Compound 2q, trans-3-benzoyl-6-methoxy-2-(4-methoxyphenyl)chroman-4-one]
[1]
  IC50: 141 µM
[2]
  CC50 at 96 h: 206 µM
L929 cells
  SI (selectivity index calculated from CC50/IC50): 1.4

## O=C(Cn1ccnc1[N+](=O)[O-])NCc1ccccc1 [Bnz, Benznidazole, reference compound]
[1]
  IC50: 3.8 µM
L929 cells
  SI (selectivity index calculated from CC50/IC50): 625

## COc1ccc([C@@H]2Oc3ccccc3C(=O)[C@H]2C(=O)c2ccco2)cc1 (relative stereo) [Compound 2w, trans-3-(furan-2-carbonyl)-2-(4-methoxyphenyl)chroman-4-one]
[1]
  Trypanocide IC50(μM) ± 0.2: Inactive

## Cc1ccc(C(=O)[C@@H]2C(=O)c3ccccc3O[C@H]2c2ccccc2)cc1 (relative stereo) [Compound 2g, trans-3-(4-methylbenzoyl)-2-phenylchroman-4-one]
[1]
  Trypanocide IC50(μM) ± 0.2: Inactive

## O=C(c1ccco1)[C@@H]1C(=O)c2ccccc2O[C@H]1c1ccccc1 (relative stereo) [Compound 2v, trans-3-(furan-2-carbonyl)-2-phenylchroman-4-one]
[1]
  Trypanocide IC50(μM) ± 0.2: Inactive

## C[C@@H]1Oc2ccccc2C(=O)[C@H]1C(=O)c1ccccc1 (relative stereo) [Compound 3, trans-3-benzoyl-2-methylchroman-4-one]
[1]
  Trypanocide IC50(μM) ± 0.2: completely inactive
